According to patent US9056890B2, “WDHD1 peptides and vaccines including the same” (OncoTherapy Science Inc., priority 2010, dated 2015):
Entries after “also recorded” stand apart in the source; their conditions may differ.

How the values were obtained:
[1] = system: peptide-pulsed TISI cells; assay: IFN-gamma ELISPOT assay on CTLs induced with peptide; type: cell-based, human; conditions: CTLs from HLA-A*2402 positive donor after 3rd peptide stimulation, versus target cells not pulsed with peptide
Excerpt: Monocyte-derived dendritic cells (DCs) were used as antigen-presenting cells to induce cytotoxic T lymphocyte (CTL) responses against peptides presented on human leukocyte antigen (HLA). DCs were generated in vitro as described elsewhere (Nakahara S et al., Cancer Res 2003, 63(14): 4112-8). Specifically, peripheral blood mononuclear cells isolated from a normal volunteer (HLA-A*2402 positive) by Ficoll-Plaque (Pharmacia) solution were separated by adherence to a plastic tissue culture dish (Becton Dickinson) so as to enrich them as the monocyte fraction. The monocyte-enriched population was cultured in the presence of 1000 U/ml of granulocyte-macrophage colony-stimulating factor (R&D System) and 1000 U/ml of interleukin (IL)-4 (R&D System) in AIM-V Medium (Invitrogen) containing 2% heat-inactivated autologous serum (AS). After 7 days of culture, the cytokine-induced DCs were pulsed with 20 micro-g/ml of each of the synthesized peptides in the presence of 3 micro-g/ml of beta 2-microglobulin for 3 hr at 37 degrees C. in AIM-V Medium. The generated cells appeared to express DC-associated molecules, such as CD80, CD83, CD86 and HLA class II, on their cell surfaces (data not shown). These peptide-pulsed DCs were then inactivated by X-irradiated (20 Gy) and mixed at a 1:20 ratio with autologous CD8+ T cells, obtained by positive selection with CD8 Positive Isolation Kit (Dynal). These cultures were set up in 48-well plates (Corning); each well contained 1.5×10^4 peptide-pulsed DCs, 3×10^5 CD8+ T cells and 10 ng/ml of IL-7 (R&D System) in 0.5 ml of AIM-V/2% AS medium. Three days later, these cultures were supplemented with IL-2 (CHIRON) to a final concentration of 20 IU/ml. On day 7 and 14, the T cells were further stimulated with the autologous peptide-pulsed DCs. The DCs were prepared each time by the same way described above. CTL was tested against peptide-pulsed TISI cells after the 3rd round of peptide stimulation on day 21 (Tanaka H et al., Br J Cancer 2001, 84(1): 94-9; Umano Y et al., Br J Cancer 2001, 84(8): 1052-7; Uchida N et al., Clin Cancer Res 2004, 10(24): 8577-86; Suda T et al., Cancer Sci 2006, 97(5): 411-9; Watanabe T et al., Cancer Sci 2005, 96(8): 498-506).
(§1) Specifically, peptide-pulsed TISI (1×10^4/well) was prepared as stimulator cells. Cultured cells in 48 wells were used as responder cells. IFN-gamma ELISPOT assay and IFN-gamma ELISA assay were performed under manufacture procedure.

[2] = system: peptide-pulsed TISI cells; assay: IFN-gamma ELISA assay of CTL lines; type: cell-based, human; conditions: target cells pulsed with corresponding peptide versus without peptide pulse
Procedure: CTLs were expanded in culture using the method similar to the one described by Riddell et al. (Walter E A et al., N Engl J Med 1995, 333(16): 1038-44; Riddell S R et al., Nat Med 1996, 2(2): 216-23). A total of 5×10^4 CTLs were suspended in 25 ml of AIM-V/5% AS medium with 2 kinds of human B-lymphoblastoid cell lines, inactivated by Mitomycin C, in the presence of 40 ng/ml of anti-CD3 monoclonal antibody (Pharmingen). One day after initiating the cultures, 120 IU/ml of IL-2 were added to the cultures. The cultures were fed with fresh AIM-V/5% AS medium containing 30 IU/ml of IL-2 on days 5, 8 and 11 (Tanaka H et al., Br J Cancer 2001, 84(1): 94-9; Umano Y et al., Br J Cancer 2001, 84(8): 1052-7; Uchida N et al., Clin Cancer Res 2004, 10(24): 8577-86; Suda T et al., Cancer Sci 2006, 97(5): 411-9; Watanabe T et al., Cancer Sci 2005, 96(8): 498-506).
as §1

[3] = system: COS7 cells transfected with both WDHD1 and HLA-A*2402; assay: Specific CTL activity against target cells expressing WDHD1 and HLA-A*2402; type: cell-based, African green monkey; conditions: COS7 expressing both WDHD1 and HLA-A*2402; listed as WDHD1-A24-9-844
Excerpt: (§2) The cDNA encoding an open reading frame of target genes or HLA-A*2402 was amplified by PCR. The PCR-amplified product was cloned into the expression vector. The plasmids were transfected into COS7, which is the target genes and HLA-A*2402-null cell line, using lipofectamine 2000 (Invitrogen) according to the manufacturer's recommended procedures. After 2 days from transfection, the transfected cells were harvested with versene (Invitrogen) and used as the target cells (5×10^4 cells/well) for CTL activity assay.
(§3) The established CTL lines and clone raised against each peptide were examined for the ability to recognize target cells that express WDHD1 and HLA-A*2402 molecule. […] COS7 cells transfected with either full length of WDHD1 or HLA-A* 2402 were prepared as the controls.

[4] = system: peptide-pulsed TISI cells; assay: IFN-gamma ELISA assay of CTL clone established by limiting dilution; type: cell-based, human; conditions: target cells pulsed with peptide versus not pulsed; listed as WDHD1-A24-9-844
Procedure: The dilutions were made to have 0.3, 1, and 3 CTLs/well in 96 round-bottomed micro titer plate (Nalge Nunc International). CTLs were cultured with 1×10^4 cells/well of 2 kinds of human B-lymphoblastoid cell lines, 30 ng/ml of anti-CD3 antibody, and 125 U/ml of IL-2 in a total of 150 micro-l/well of AIM-V Medium containing 5% AS. 50 micro-l/well of IL-2 were added to the medium 10 days later so to reach a final concentration of 125 U/ml IL-2. CTL activity was tested on the 14th day, and CTL clones were expanded using the same method as described above (Uchida N et al., Clin Cancer Res 2004, 10(24): 8577-86; Suda T et al., Cancer Sci 2006, 97(5): 411-9; Watanabe T et al., Cancer Sci 2005, 96(8): 498-506).
as §1

[5] = system: COS7 cells transfected with either full length of WDHD1 or HLA-A*2402; assay: Specific CTL activity against control target cells; type: cell-based, African green monkey; conditions: COS7 expressing either HLA-A*2402 or WDHD1 only
Excerpt: as §2, §3

Sequence	peptide specific CTL activity, IFN-gamma production [1]	IFN-gamma production of CTL lines [2]	other results
EQFWRSVIF [SEQ ID NO: 19]	potent IFN-gamma production	–	–
GYAICGLAW [SEQ ID NO: 14]	potent IFN-gamma production	–	–
GYSNTATEW [SEQ ID NO: 13]	potent IFN-gamma production	potent IFN-gamma production	specific CTL activity of CTL clone [3]: potent CTL activity; also recorded: specific CTL activity; IFN-gamma production of CTL clone [4]: potent IFN-gamma production; specific CTL activity of CTL clone against controls [5]: no significant specific CTL activity
KQILHGDPL [SEQ ID NO: 8]	potent IFN-gamma production	–	–
KYASRSRKL [SEQ ID NO: 1]	–	–	peptide specific CTL activity, IFN-gamma production ([1]; listed as WDHD1-A24-9-798): not observed
RSVIFHNHL [SEQ ID NO: 6]	potent IFN-gamma production	–	–
SYLAWIGFSA [SEQ ID NO: 29]	potent IFN-gamma production	potent IFN-gamma production	–
TWSPCGQYL [SEQ ID NO: 12]	potent IFN-gamma production	potent IFN-gamma production	–
